Assay results taken from PubChem BioAssay AID256 (DTP/NCI, 2004).
Toxic doses and inconclusive results are not listed.

Tested on: CD2F1 mice, L1210 leukemia ip, survival T/C
Experiment: NCI In Vivo Anticancer Drug Screen. Data for tumor model L1210 Leukemia (intraperitoneal) in CD2F1 (CDF1) mice
Settings: endpoint: mean survival time, higher = longer survival
Outline: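 Ratio T/C, where T is the treated-group value and C the vehicle-dosed control value, from mice implanted with a transplantable tumor.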

[1] = dose: 100.0 mg/kg/injection, schedule: Q01DX009 (ip), vehicle: saline with Tween-80
[2] = dose: 200.0 mg/kg/injection, schedule: Q01DX009 (ip), vehicle: saline with Tween-80
[3] = dose: 100.0 mg/kg/injection, schedule: Q04DX003 (ip), vehicle: saline with Tween-80

`Cc1cc(=S)[nH]c2ccccc12` was tested, and the T/C (dose: 37.5 mg/kg/injection, schedule: Q01DX009 (ip), vehicle: saline) was 91 % of control, the T/C (dose: 75.0 mg/kg/injection, schedule: Q01DX009 (ip), vehicle: saline) was 91 % of control and the T/C (dose: 150.0 mg/kg/injection, schedule: Q01DX009 (ip), vehicle: saline) was 96 % of control.
In the case of `CC(C)(C)ONC(=O)c1ccccc1Sc1ccccc1`, the T/C [1] is reported as 101 % of control, the T/C [2] is reported as 98 % of control and the T/C (dose: 400.0 mg/kg/injection, schedule: Q01DX009 (ip), vehicle: saline with Tween-80) is reported as 97 % of control.
In the case of `CN1C(=O)c2ccccc2C1(c1ccccc1)c1ccccc1`, the T/C [3] is reported as 92 % of control, the T/C (dose: 200.0 mg/kg/injection, schedule: Q04DX003 (ip), vehicle: saline with Tween-80) is reported as 103 % of control and the T/C (dose: 400.0 mg/kg/injection, schedule: Q04DX003 (ip), vehicle: saline with Tween-80) is reported as 102 % of control.
`CC1OC(OC2CC(O)(C(=O)CO)Cc3c(O)c4c(c(O)c32)C(=O)c2ccccc2C4=O)CC(N)C1O` (centres undefined) was tested, and the T/C (dose: 0.03 mg/kg/injection, schedule: Q01DX009 (ip), vehicle: water) was 114 % of control, the T/C (dose: 0.13 mg/kg/injection, schedule: Q01DX009 (ip), vehicle: water) was 151 % of control and the T/C (dose: 0.25 mg/kg/injection, schedule: Q01DX009 (ip), vehicle: water) was 175 % of control. The T/C (dose: 1.0 mg/kg/injection, schedule: Q01DX009 (ip), vehicle: water) was 102 % of control.
For `CC(c1ccccc1)S(=O)[O-].[C-]#[O+].[C-]#[O+].[Fe+6].[c-]1[c-][c-][cH-][c-]1` (centres undefined), the T/C (dose: 25.0 mg/kg/injection, schedule: Q04DX003 (ip), vehicle: saline with Tween-80) was 94 % of control, the T/C (dose: 50.0 mg/kg/injection, schedule: Q04DX003 (ip), vehicle: saline with Tween-80) was 100 % of control and the T/C [3] was 97 % of control.
In the case of `[CH3][Sn]([Br])([Br])[CH2]CCCBr`, the T/C (dose: 0.39 mg/kg/injection, schedule: Q01DX009 (ip), vehicle: saline) is reported as 90 % of control, the T/C (dose: 0.78 mg/kg/injection, schedule: Q01DX009 (ip), vehicle: saline) is reported as 97 % of control and the T/C (dose: 1.56 mg/kg/injection, schedule: Q01DX009 (ip), vehicle: saline) is reported as 97 % of control. The T/C (dose: 6.25 mg/kg/injection, schedule: Q01DX009 (ip), vehicle: saline) was 110 % of control.
`CC(=O)Nc1ccc2c(c1)C(=O)c1ccccc1-2` was tested, and the T/C (dose: 50.0 mg/kg/injection, schedule: Q01DX001 (ip), vehicle: saline) was 104 % of control, the T/C (dose: 100.0 mg/kg/injection, schedule: Q01DX001 (ip), vehicle: saline) was 101 % of control and the T/C (dose: 100.0 mg/kg/injection, schedule: Q01DX009 (ip), vehicle: saline) was 106 % of control. The T/C (dose: 100.0 mg/kg/injection, schedule: Q04DX003 (ip), vehicle: saline) was 87 % of control, the T/C (dose: 200.0 mg/kg/injection, schedule: Q01DX001 (ip), vehicle: saline) was 95 % of control and the T/C (dose: 200.0 mg/kg/injection, schedule: Q01DX009 (ip), vehicle: saline) was 96 % of control. The T/C (dose: 200.0 mg/kg/injection, schedule: Q04DX003 (ip), vehicle: saline) was 94 % of control, the T/C (dose: 400.0 mg/kg/injection, schedule: Q01DX001 (ip), vehicle: saline) was 87 % of control and the T/C (dose: 400.0 mg/kg/injection, schedule: Q01DX009 (ip), vehicle: saline) was 95 % of control. The T/C (dose: 400.0 mg/kg/injection, schedule: Q04DX003 (ip), vehicle: saline) was 92 % of control.
With `O=C1CN(CCN2CC(=O)N(C(=O)c3ccccc3)C2=S)C(=S)N1Cc1ccccc1` the T/C (dose: 50.0 mg/kg/injection, schedule: Q01DX009 (ip), vehicle: saline with Tween-80) was 96 % of control, the T/C [1] was 96 % of control and the T/C [2] was 96 % of control.
In the case of `[Cl][Pt+2][Cl].[NH-]c1ccc(F)cc1.[NH-]c1ccc(F)cc1`, the T/C (dose: 3.13 mg/kg/injection, schedule: Q04DX003 (ip), vehicle: distilled water + Tween-80) is reported as 102 % of control, the T/C (dose: 6.25 mg/kg/injection, schedule: Q04DX003 (ip), vehicle: distilled water + Tween-80) is reported as 104 % of control and the T/C (dose: 12.5 mg/kg/injection, schedule: Q04DX003 (ip), vehicle: distilled water + Tween-80) is reported as 102 % of control. The T/C (dose: 25.0 mg/kg/injection, schedule: Q04DX003 (ip), vehicle: distilled water + Tween-80) was 108 % of control, the T/C (dose: 50.0 mg/kg/injection, schedule: Q04DX003 (ip), vehicle: distilled water + Tween-80) was 108 % of control and the T/C (dose: 100.0 mg/kg/injection, schedule: Q04DX003 (ip), vehicle: distilled water + Tween-80) was 93 % of control.
